{"source": "patent US10266513B2", "about": "(Pfizer Inc., priority 2012, dated 2019)", "note": "pIC50: −log10 of the molar value."}
{"test_system": "Human B cells", "test": "Human Primary B Cell Proliferation Assay (3H-thymidine incorporation, anti-human IgM stimulated)", "assay_type": "cell-based", "conditions": "B-cell, purified human B cells, 50 μg/mL anti-human IgM F(ab')2, 72 hours", "method": "Human Primary B Cell Proliferation Assay\nHuman B cells were purified from buffy coats using the human B cell RosetteSep kit per manufacturer's instructions. Purified cells were resuspended in RPMI-10% HIFCS, 2 mM L-glutamine, 100 U/mL penicillin, 100 μg/ml streptomycin, incubated with compounds for 1 hour at 37° C. and then stimulated with 50 μg/mL anti-human IgM F(ab′)2 for 72 hours. ^3H-thymidine was included in the culture media for the final 8-16 hours. Cells were harvested and ^3H-thymidine incorporation was measured.\nHuman B cell Proliferation Assay"}
{"smiles": "NC(=O)c1c(-c2ccc(Oc3ccc(F)cc3F)cc2)nn([C@@H]2CCCN(C(=O)/C=C/C(F)F)C2)c1N", "note": "[Example 144, 5-amino-1-{(3R)-1-[(2E)-4,4-difluorobut-2-enoyl]piperidin-3-yl}-3-[4-(2,4-difluorophenoxy)phenyl]-1H-pyrazole-4-carboxamide]", "pIC50": 9.08}
{"target": "human full-length BTK Kinase (Homo sapiens (Human), UniProt Q06187)", "sequence (Q06187 whole entry)": "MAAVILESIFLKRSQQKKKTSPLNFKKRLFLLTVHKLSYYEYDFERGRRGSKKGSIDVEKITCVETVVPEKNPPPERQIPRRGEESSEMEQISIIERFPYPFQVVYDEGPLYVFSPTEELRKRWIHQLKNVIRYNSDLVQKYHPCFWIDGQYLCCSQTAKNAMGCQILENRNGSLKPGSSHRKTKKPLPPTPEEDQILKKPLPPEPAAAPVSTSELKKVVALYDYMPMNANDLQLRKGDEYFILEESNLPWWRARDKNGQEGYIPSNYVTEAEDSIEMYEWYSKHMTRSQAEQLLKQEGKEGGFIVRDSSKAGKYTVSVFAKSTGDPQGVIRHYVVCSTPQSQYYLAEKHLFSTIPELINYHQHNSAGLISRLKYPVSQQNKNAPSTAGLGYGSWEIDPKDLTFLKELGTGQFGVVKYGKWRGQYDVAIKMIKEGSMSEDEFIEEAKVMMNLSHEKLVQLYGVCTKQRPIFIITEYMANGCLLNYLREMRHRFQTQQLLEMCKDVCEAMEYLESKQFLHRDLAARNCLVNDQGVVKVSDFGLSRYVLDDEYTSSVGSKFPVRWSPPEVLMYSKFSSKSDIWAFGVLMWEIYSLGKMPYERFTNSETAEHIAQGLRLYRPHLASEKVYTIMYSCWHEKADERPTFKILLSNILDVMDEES", "test": "Human BTK LanthaScreen Assay (TR-FRET)", "assay_type": "biochemical", "conditions": "50 μM ATP, FAM-Srctide peptide substrate, read-out: BTK Inhibition IC50", "from_the_text": "Human BTK LanthaScreen Assay"}
{"smiles": "N#CN1CCCC(n2nc(-c3ccc(Oc4ccc(F)cn4)cc3)c(C(N)=O)c2N)C1", "note": "(centres unmarked) [Example 111, 5-amino-1-(1-cyanopiperidin-3-yl)-3-{4-[(5-fluoropyridin-2-yl)oxy]phenyl}-1H-pyrazole-4-carboxamide]", "pIC50": 6.92}
{"smiles": "Cc1ccc(Oc2ccc(-c3nn(C4CCCN(C#N)C4)c(N)c3C(N)=O)cc2)nc1", "note": "(centres unmarked) [Example 112, 5-amino-1-(1-cyanopiperidin-3-yl)-3-(4-((5-methylpyridin-2-yl)oxy)phenyl)-1H-pyrazole-4-carboxamide]", "pIC50": 7.78}
{"smiles": "N#CN1CCCC(n2nc(-c3ccc(Oc4ncc(F)cc4F)cc3)c(C(N)=O)c2N)C1", "note": "(centres unmarked) [Example 115, 5-amino-1-(1-cyanopiperidin-3-yl)-3-{4-[(3,5-difluoropyridin-2-yl)oxy]phenyl}-1H-pyrazole-4-carboxamide]", "pIC50": 8.43}
{"smiles": "N#CN1CCC[C@H](n2nc(-c3ccc(Oc4cccc(C(F)(F)F)n4)cc3)c(C(N)=O)c2N)C1", "note": "[Example 117]", "pIC50": 7.72}
{"smiles": "N#CN1CCC[C@H](n2nc(-c3ccc(Oc4ncc(Cl)cc4F)cc3)c(C(N)=O)c2N)C1", "note": "[Example 119, (S)-5-amino-3-(4-((5-chloro-3-fluoropyridin-2-yl)oxy)phenyl)-1-(1-cyanopiperidin-3-yl)-1H-pyrazole-4-carboxamide]", "pIC50": 7.22}
{"smiles": "N#CN1CCCC(n2nc(-c3ccc(Oc4ccc(F)cc4)cc3Cl)c(C(N)=O)c2N)C1", "note": "(centres unmarked) [Example 120, 5-amino-3-[2-chloro-4-(4-fluorophenoxy)phenyl]-1-(1-cyanopiperidin-3-yl)-1H-pyrazole-4-carboxamide]", "pIC50": 6.85}
{"smiles": "C[C@H]1CC[C@@H](n2nc(-c3ccc(Oc4ccc(F)cc4F)cc3)c(C(N)=O)c2N)CN1C#N", "note": "[Example 122, 5-amino-1-[(3R,6S)-1-cyano-6-methylpiperidin-3-yl]-3-[4-(2,4-difluorophenoxy)phenyl]-1H-pyrazole-4-carboxamide]", "pIC50": 9.34}
{"smiles": "C[C@@H]1CC[C@H](n2nc(-c3ccc(Oc4ccc(F)cc4F)cc3)c(C(N)=O)c2N)CN1C#N", "note": "[Example 123, 5-amino-1-[(3S,6R)-1-cyano-6-methylpiperidin-3-yl]-3-[4-(2,4-difluorophenoxy)phenyl]-1H-pyrazole-4-carboxamide]", "pIC50": 6.40}
{"smiles": "N#CN1CCCC(n2nc(-c3ccc(Sc4ccc(Cl)cc4)cc3)c(C(N)=O)c2N)C1", "note": "(centres unmarked) [Example 124, 5-amino-3-{4-[(4-chlorophenyl)thio]phenyl}-1-(1-cyanopiperidin-3-yl)-1H-pyrazole-4-carboxamide]", "pIC50": 9.13}
{"smiles": "N#CN1CCCC(n2nc(-c3ccc(Sc4ccccc4)cc3)c(C(N)=O)c2N)C1", "note": "(centres unmarked) [Example 125, 5-amino-1-(1-cyanopiperidin-3-yl)-3-[4-(phenylthio)phenyl]-1H-pyrazole-4-carboxamide]", "pIC50": 9.40}
{"smiles": "C/C=C/C(=O)N1CCCC(n2nc(-c3ccc(Oc4ccccc4)cc3)c(C(N)=O)c2N)C1", "note": "(centres unmarked) [Example 128, 5-amino-1-{1-[(2E)-but-2-enoyl]piperidin-3-yl}-3-(4-phenoxyphenyl)-1H-pyrazole-4-carboxamide]", "pIC50": 8.35}
{"smiles": "NC(=O)c1c(-c2ccc(Oc3ccccc3)cc2)nn([C@@H]2CCCN(C(=O)/C=C/CO)C2)c1N", "note": "[Example 129, 5-amino-1-{(3R)-1-[(2E)-4-hydroxybut-2-enoyl]piperidin-3-yl}-3-(4-phenoxyphenyl)-1H-pyrazole-4-carboxamide]", "pIC50": 9.00}
{"smiles": "NC(=O)c1c(-c2ccc(Oc3ccc(Cl)cc3)cc2)nn([C@@H]2CCCN(C(=O)/C=C/CF)C2)c1N", "note": "[Example 132, 5-amino-3-[4-(4-chlorophenoxy)phenyl]-1-{(3R)-1-[(2E)-4-fluorobut-2-enoyl]piperidin-3-yl}-1H-pyrazole-4-carboxamide]", "pIC50": 8.96}
{"smiles": "NC(=O)c1c(-c2ccc(Oc3ccc(Cl)cc3)cc2)nn([C@@H]2CCCN(C(=O)/C=C/C(F)F)C2)c1N", "note": "[Example 133, 5-amino-3-[4-(4-chlorophenoxy)phenyl]-1-{(3R)-1-[(2E)-4,4-difluorobut-2-enoyl]piperidin-3-yl}-1H-pyrazole-4-carboxamide]", "pIC50": 9.42}
{"smiles": "C=C(F)C(=O)N1CCC[C@@H](n2nc(-c3ccc(Oc4ccc(Cl)cc4)cc3)c(C(N)=O)c2N)C1", "note": "[Example 134, 5-amino-3-[4-(4-chlorophenoxy)phenyl]-1-[(3R)-1-(2-fluoroacryloyl)piperidin-3-yl]-1H-pyrazole-4-carboxamide]", "pIC50": 8.30}
{"smiles": "N#C/C=C/C(=O)N1CCC[C@@H](n2nc(-c3ccc(Oc4ccc(Cl)cc4)cc3)c(C(N)=O)c2N)C1", "note": "[Example 135, 5-amino-3-[4-(4-chlorophenoxy)phenyl]-1-{(3R)-1-[(2E)-3-cyanoprop-2-enoyl]piperidin-3-yl}-1H-pyrazole-4-carboxamide]", "pIC50": 8.92}
{"smiles": "COC/C=C/C(=O)N1CCC[C@@H](n2nc(-c3ccc(Oc4ccc(F)cc4F)cc3)c(C(N)=O)c2N)C1", "note": "[Example 138, 5-amino-3-[4-(2,4-difluorophenoxy)phenyl]-1-{(3R)-1-[(2E)-4-methoxybut-2-enoyl]piperidin-3-yl}-1H-pyrazole-4-carboxamide]", "pIC50": 7.66}
{"smiles": "C=C(C)C(=O)N1CCC[C@@H](n2nc(-c3ccc(Oc4ccc(F)cc4F)cc3)c(C(N)=O)c2N)C1", "note": "[Example 139, 5-amino-3-[4-(2,4-difluorophenoxy)phenyl]-1-[(3R)-1-(2-methylacryloyl)piperidin-3-yl]-1H-pyrazole-4-carboxamide]", "pIC50": 6.61}
{"smiles": "NC(=O)c1c(-c2ccc(Oc3ccc(F)cc3F)cc2)nn([C@@H]2CCCN(C(=O)/C=C/CCO)C2)c1N", "note": "[Example 141, 5-amino-3-[4-(2,4-difluorophenoxy)phenyl]-1-{(3R)-1-[(2E)-5-hydroxypent-2-enoyl]piperidin-3-yl}-1H-pyrazole-4-carboxamide]", "pIC50": 7.24}
{"smiles": "C/C=C/C(=O)N1CCC[C@@H](n2nc(-c3ccc(Oc4ccc(F)cc4F)cc3)c(C(N)=O)c2N)C1", "note": "[Example 142, 5-amino-1-{(3R)-1-[(2E)-but-2-enoyl]piperidin-3-yl}-3-[4-(2,4-difluorophenoxy)phenyl]-1H-pyrazole-4-carboxamide]", "pIC50": 7.21}
{"smiles": "CC/C=C/C(=O)N1CCC[C@@H](n2nc(-c3ccc(Oc4ccc(F)cc4F)cc3)c(C(N)=O)c2N)C1", "note": "[Example 143, 5-amino-3-[4-(2,4-difluorophenoxy)phenyl]-1-{(3R)-1-[(2E)-pent-2-enoyl]piperidin-3-yl}-1H-pyrazole-4-carboxamide]", "pIC50": 6.90}
{"smiles": "NC(=O)c1c(-c2ccc(Oc3ccc(F)cc3F)cc2)nn([C@@H]2CCCN(C(=O)/C=C/C(F)F)C2)c1N", "note": "[Example 144, 5-amino-1-{(3R)-1-[(2E)-4,4-difluorobut-2-enoyl]piperidin-3-yl}-3-[4-(2,4-difluorophenoxy)phenyl]-1H-pyrazole-4-carboxamide]", "pIC50": 9.39}
{"smiles": "NC(=O)c1c(-c2ccc(Oc3ccc(F)cc3F)cc2)nn([C@@H]2CCCN(C(=O)/C(F)=C/CO)C2)c1N", "note": "[Example 146, 5-amino-3-[4-(2,4-difluorophenoxy)phenyl]-1-{(3R)-1-[(2Z)-2-fluoro-4-hydroxybut-2-enoyl]piperidin-3-yl}-1H-pyrazole-4-carboxamide]", "pIC50": 7.32}
{"smiles": "CC(C)(O)/C=C/C(=O)N1CCC[C@@H](n2nc(-c3ccc(Oc4ccc(F)cc4F)cc3)c(C(N)=O)c2N)C1", "note": "[Example 147, 5-amino-3-[4-(2,4-difluorophenoxy)phenyl]-1-{(3R)-1-[(2E)-4-hydroxy-4-methylpent-2-enoyl]piperidin-3-yl}-1H-pyrazole-4-carboxamide]", "pIC50": 6.62}
{"smiles": "C[C@H](O)/C=C/C(=O)N1CCC[C@@H](n2nc(-c3ccc(Oc4ccc(F)cc4F)cc3)c(C(N)=O)c2N)C1", "note": "[Example 148, 5-amino-3-[4-(2,4-difluorophenoxy)phenyl]-1-{(3R)-1-[(2E,4S)-4-hydroxypent-2-enoyl]piperidin-3-yl}-1H-pyrazole-4-carboxamide]", "pIC50": 7.41}
{"smiles": "C[C@@H](O)/C=C/C(=O)N1CCC[C@@H](n2nc(-c3ccc(Oc4ccc(F)cc4F)cc3)c(C(N)=O)c2N)C1", "note": "[Example 149, 5-amino-3-(4-(2,4-difluorophenoxy)phenyl)-1-((R)-1-((R,E)-4-hydroxypent-2-enoyl)piperidin-3-yl)-1H-pyrazole-4-carboxamide]", "pIC50": 7.28}
{"smiles": "C=C(F)C(=O)N1CCC[C@@H](n2nc(-c3ccc(Oc4ccc(F)cc4F)cc3)c(C(N)=O)c2N)C1", "note": "[Example 150, 5-amino-3-[4-(2,4-difluorophenoxy)phenyl]-1-[(3R)-1-(2-fluoroacryloyl)piperidin-3-yl]-1H-pyrazole-4-carboxamide]", "pIC50": 8.28}
{"smiles": "N#C/C=C/C(=O)N1CCC[C@@H](n2nc(-c3ccc(Oc4ccc(F)cc4F)cc3)c(C(N)=O)c2N)C1", "note": "[Example 152, 5-amino-1-{(3R)-1-[(2E)-3-cyanoprop-2-enoyl]piperidin-3-yl}-3-[4-(2,4-difluorophenoxy)phenyl]-1H-pyrazole-4-carboxamide]", "pIC50": 8.82}
{"smiles": "NC(=O)c1c(-c2ccc(Oc3ncc(Cl)cc3F)cc2)nn([C@@H]2CCCN(C(=O)/C=C/CO)C2)c1N", "note": "[Example 154, 5-amino-3-{4-[(5-chloro-3-fluoropyridin-2-yl)oxy]phenyl}-1-{(3R)-1-[(2E)-4-hydroxybut-2-enoyl]piperidin-3-yl}-1H-pyrazole-4-carboxamide]", "pIC50": 7.31}
{"smiles": "C=C(F)C(=O)N1CCC[C@@H](n2nc(-c3ccc(Oc4cccc(C(F)(F)F)n4)cc3)c(C(N)=O)c2N)C1", "note": "[Example 165]", "pIC50": 8.36}
{"smiles": "N#C/C=C/C(=O)N1CCC[C@@H](n2nc(-c3ccc(Oc4cccc(C(F)(F)F)n4)cc3)c(C(N)=O)c2N)C1", "note": "[Example 166, 5-amino-1-{(3R)-1-[(2E)-3-cyanoprop-2-enoyl]piperidin-3-yl}-3-(4-{[6-(trifluoromethyl)pyridin-2-yl]oxy}phenyl)-1H-pyrazole-4-carboxamide]", "pIC50": 8.66}
